The test addresses T1, full length SGK1 (Homo sapiens, UniProt O00141).
T1 construct: 125 μM full length SGK1 (Life Technologies Part #PR7358A); purchased Life Technologies PR7358A
T1 sequence (O00141 1-431): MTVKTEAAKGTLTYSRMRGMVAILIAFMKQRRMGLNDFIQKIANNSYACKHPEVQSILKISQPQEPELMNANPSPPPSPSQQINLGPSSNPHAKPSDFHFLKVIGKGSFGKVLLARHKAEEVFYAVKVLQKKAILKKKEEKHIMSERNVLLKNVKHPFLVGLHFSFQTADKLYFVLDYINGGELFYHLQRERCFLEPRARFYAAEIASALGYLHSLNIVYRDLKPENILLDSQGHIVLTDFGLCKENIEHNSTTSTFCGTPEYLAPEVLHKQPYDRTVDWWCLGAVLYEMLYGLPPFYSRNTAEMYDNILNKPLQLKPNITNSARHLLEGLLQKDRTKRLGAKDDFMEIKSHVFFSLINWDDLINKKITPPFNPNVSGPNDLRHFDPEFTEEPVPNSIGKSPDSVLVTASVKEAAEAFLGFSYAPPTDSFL
Put plainly: SGK1 inhibition Assay A (Caliper LabChip electrophoretic separation of fluorescent peptide substrate and phosphorylated product). The test is classed as biochemical. Conditions: Assay A; 20 μM ATP, 40 min incubation; read-out: SGK1 IC50.

Consider 27 compounds from US20260250290A1 (BRISTOL-MYERS SQUIBB COMPANY, priority 2023, published 2026).

SMILES strings stand for the structures.

As usually defined, the IC50 is the concentration that gives 50% inhibition. Consider `CC(=O)N1CC=C(c2cc(N3CCC[C@@H](NC(=O)c4cccc(N(C)C)n4)C3)c3c(N)ncnn23)C1` [Example 725, (R)-N-(1-(7-(1-acetyl-2,5-dihydro-1H-pyrrol-3-yl)-4-aminopyrrolo[2,1-f][1,2,4]triazin-5-yl)piperidin-3-yl)-6-(dimethylamino) picolinamide], for which the half-maximal inhibitory concentration (IC50) is 26 nM.
With `CC(=O)N1CC=C(c2cc(N3CCC[C@@H](NC(=O)c4cccc(F)n4)C3)c3c(N)ncnn23)C1` [Example 726, :(R)-N-(1-(7-(1-acetyl-2,5-dihydro-1H-pyrrol-3-yl)-4-aminopyrrolo[2,1-f][1,2,4]triazin-5-yl)piperidin-3-yl)-6-fluoropicolinamide] the figure was 61 nM; with `CC(=O)N1CC=C(c2cc(N3CCC[C@@H](NC(=O)c4cccc(CN5CCN(C)CC5)n4)C3)c3c(N)ncnn23)C1` [Example 727, (R)-N-(1-(7-(1-acetyl-2,5-dihydro-1H-pyrrol-3-yl)-4-aminopyrrolo[2,1-f][1,2,4]triazin-5-yl)piperidin-3-yl)-6-((4-methylpiperazin-1-yl)methyl)picolinamide], 161 nM.
With `CC(=O)N1CC=C(c2cc(N3CCC[C@@H](NC(=O)c4ccccn4)C3)c3c(N)ncnn23)C1` [Example 728, (R)-N-(1-(7-(1-acetyl-2,5-dihydro-1H-pyrrol-3-yl)-4-aminopyrrolo[2,1-f][1,2,4]triazin-5-yl)piperidin-3-yl)picolinamide], the IC50 was 81 nM.
In the case of `CC(=O)N1CC=C(c2cc(N3CCC[C@@H](NC(=O)c4cccnc4)C3)c3c(N)ncnn23)C1` [Example 729, (R)-N-(1-(7-(1-acetyl-2,5-dihydro-1H-pyrrol-3-yl)-4-aminopyrrolo[2,1-f][1,2,4]triazin-5~ yl)piperidin-3-yl)nicotinamide], the IC50 was 111 nM.
Then `CC(=O)N1CC=C(c2cc(N3CCC[C@@H](NC(=O)c4ccncc4)C3)c3c(N)ncnn23)C1` [Example 730, (R)-N-(1-(7-(1-acetyl-2,5-dihydro-1H-pyrrol-3-yl)-4-aminopyrrolo[2,1-f][1,2,4]triazin-5-yl)piperidin-3-yl)isonicotinamide], with 26 nM; and `CC(=O)N1CC=C(c2cc(N3CCC[C@@H](NC(=O)c4ccc(Cl)s4)C3)c3c(N)ncnn23)C1` [Example 731, (R)-N-(1-(7-(1-acctyl-2,5-dihydro-1H-pyrrol-3-yl)-4-aminopyrrolo[2,1-f][1,2,4]triazin-5-yl)piperidin-3-yl)-5-chlorothiophene-2-carboxamide], with 6 nM.
As for `CC(=O)N1CC=C(c2cc(N3CCC[C@@H](NC(=O)c4cc(C)cc(N5CCN(C)CC5)n4)C3)c3c(N)ncnn23)C1` [Example 732, (R)-N-(1-(7-(1-acetyl-2,5-dihydro-1H-pyrrol-3-yl)-4-aminopyrrolo[2,1-f][1,2,4]triazin-5-yl)piperidin-3-yl)-4-methyl-6-(4-methylpiperazin-1-yl)picolinamide], the IC50 came out at 25 nM.
As for `CC(=O)N1CC=C(c2cc(N3CCC[C@@H](NC(=O)c4cccc(OCC5CN(C)C5)n4)C3)c3c(N)ncnn23)C1` [Example 733, (R)-N-(1-(7-(1-acetyl-2,5-dihydro-1H-pyrrol-3-yl)-4-aminopyrrolo[2,1-f][1,2,4]triazin-5-yl)piperidin-3-yl)-6-((1-methylazetidin-3-yl)methoxy)picolinamide], the IC50 was determined as 23 nM.
As to `CC(=O)N1CC=C(c2cc(N3CCC[C@@H](NC(=O)c4cccc(OC5CN6CCC5CC6)n4)C3)c3c(N)ncnn23)C1` (stereo partly drawn) [Example 734, N-((R)-1-(7-(1-acetyl-2,5-dihydro-1H-pyrrol-3-yl)-4-aminopyrrolo[2,1-f][1,2,4]triazin-5-yl)piperidin-3-yl)-6-(quinuclidin-3-yloxy)picolinamide], the IC50 is 10 nM.
With `CC(=O)N1CC=C(c2cc(N3CCC[C@@H](NC(=O)c4cccc(N5CCN(C)CC5)c4)C3)c3c(N)ncnn23)C1` [Example 735, (R)-N-(1-(7-(1-acetyl-2,5-dihydro-1H-pyrrol-3-yl)-4-aminopyrrolo[2,1-f][1,2,4]triazin-5-yl)piperidin-3-yl)-3-(4-methylpiperazin-1-yl)benzamide] the figure was 21 nM; with `CC(=O)N1CC=C(c2cc(N3CCC[C@@H](NC(=O)c4cncc(N5CCN(C)CC5)n4)C3)c3c(N)ncnn23)C1` [Example 736], 48 nM; with `CC(=O)N1CC=C(c2cc(N3CCC[C@@H](NC(=O)c4ccn(C(F)F)n4)C3)c3c(N)ncnn23)C1` [Example 737], 10 nM.
Consider `CC(=O)N1CC=C(c2cc(N3CCC[C@@H](NC(=O)c4ccn(C)n4)C3)c3c(N)ncnn23)C1` [Example 738, (R)-N-(1-(7-(1-acetyl-2,5-dihydro-1H-pyrrol-3-yl)-4-aminopyrrolo[2,1-f][1,2,4]triazin-5-yl)piperidin-3-yl)-1-methyl-1H-pyrazole-3-carboxamide], for which the concentration for half-maximal inhibition (IC50) stood at 115 nM.
For `CC(=O)N1CC=C(c2cc(N3CCC[C@@H](NC(=O)c4cc(C5CC5)n(C)n4)C3)c3c(N)ncnn23)C1` [Example 739, (R)-N-(1-(7-(1-acetyl-2,5-dihydro-1H-pyrrol-3-yl)-4-aminopyrrolo[2,1-f][1,2,4]triazin-5-yl)piperidin-3-yl)-5-cyclopropyl-1-methyl-1H-pyrazole-3-carboxamide], the IC50 stood at 98 nM.
On to `CC(=O)N1CC=C(c2cc(N3CCC[C@@H](NC(=O)c4ccncn4)C3)c3c(N)ncnn23)C1` [Example 740, (R)-N-(1-(7-(1-acetyl-2,5-dihydro-1H-pyrrol-3-yl)-4-aminopyrrolo[2,1-f][1,2,4]triazin-5-yl)piperidin-3-yl)pyrimidine-4-carboxamide], for which the IC50 amounted to 241 nM.
For `CC(=O)N1CC=C(c2cc(N3CCC[C@@H](NC(=O)c4ccnc(N5CCN(C)CC5)n4)C3)c3c(N)ncnn23)C1` [Example 741], the IC50 is 3 nM.
On to `CCn1ccc(C(=O)N[C@@H]2CCCN(c3cc(C4=CCN(C(C)=O)C4)n4ncnc(N)c34)C2)n1` [Example 742, (R)-N-(1-(7-(1-acetyl-2,5-dihydro-1H-pyrrol-3-yl)-4-aminopyrrolo[2,1-f][1,2,4]triazin-5-yl)piperidin-3-yl)-1-ethyl-1H-pyrazole-3-carboxamide], for which the IC50 was found to be 135 nM.
Turning to `CC(=O)N1CC=C(c2cc(N3CCC[C@@H](NC(=O)c4ccn(CC(F)F)n4)C3)c3c(N)ncnn23)C1` [Example 743], the IC50 is 51 nM.
Then `CC(=O)N1CC=C(c2cc(N3CCC[C@@H](NC(=O)c4nc(N5CCN(C)CC5)ccc4F)C3)c3c(N)ncnn23)C1` [Example 744, (R)-N-(1-(7-(1-acetyl-2,5-dihydro-1H-pyrrol-3-yl)-4-aminopyrrolo[2,1-f][1,2,4]triazin-5-yl)piperidin-3-yl)-3-fluoro-6-(4-methylpiperazin-1-yl)picolinamide], with 8 nM.
As to `CC(=O)N1CC=C(c2cc(N3CCC[C@@H](NC(=O)c4nc(F)ccc4N4CCN(C)CC4)C3)c3c(N)ncnn23)C1` [Example 745, (R)-N-(1-(7-(1-acetyl-2,5-dihydro-1H-pyrrol-3-yl)-4-aminopyrrolo[2,1-f][1,2,4]triazin-5-yl)piperidin-3-yl)-6-fluoro-3-(4-methylpiperazin-1-yl)picolinamide], the IC50 was 366 nM.
In the case of `CC(=O)N1CC=C(c2cc(N3CCC[C@@H](NC(=O)c4ccc5n(c4=O)CCC5)C3)c3c(N)ncnn23)C1` [Example 746, (R)-N-(1-(7-(1-acetyl-2,5-dihydro-1H-pyrrol-3-yl)-4-aminopyrrolo[2,1-f][1,2,4]triazin-5-yl)piperidin-3-yl)-5-oxo-1,2,3,5-tetrahydroindolizine-6-carboxamide], the IC50 was 784 nM.
Consider `CC(=O)N1CC=C(c2cc(N3CCC[C@@H](NC(=O)c4cc(C5CC5)[nH]n4)C3)c3c(N)ncnn23)C1` [Example 747], for which the IC50 turned out to be 13 nM.
Then `CCOC1=C(C(=O)N[C@@H]2CCCN(c3cc(C4=CCN(C(C)=O)C4)n4ncnc(N)c34)C2)CN(CC(F)(F)C(F)(F)F)C1=O` [Example 748, (R)-N-(1-(7-(1-acetyl-2,5-dihydro-1H-pyrrol-3-yl)-4-aminopyrrolo[2,1-f][1,2,4]triazin-5-yl)piperidin-3-yl)~4-ethoxy-5-oxo-1-(2,2,3,3,3-pentafluoropropyl)-2,5-dihydro-1H-pyrrole-3-carboxamide], with 318 nM; and `CC(=O)N1CC=C(c2cc(N3CCC[C@@H](NC(=O)c4cccc(N5CCN(CC(F)F)CC5)n4)C3)c3c(N)ncnn23)C1` [Example 750, (R)-N-(1-(7-(1-acetyl-2,5-dihydro-1H-pyrrol-3-yl)-4-aminopyrrolo[2,1-f][1,2,4]triazin-5-yl)piperidin-3-yl)-6-(4-(2,2-difluoroethyl)piperazin-1-yl)picolinamide], with 41 nM.
Take `CC(=O)N1CC=C(c2cc(N3CCC[C@@H](NC(=O)c4cccc(OC5CCN(C(C)C)CC5)n4)C3)c3c(N)ncnn23)C1` [Example 751, (R)-N-(1-(7-(1-acetyl-2,5-dihydro-1H-pyrrol-3-yl)-4-aminopyrrolo[2,1-f][1,2,4]triazin-5-yl)piperidin-3-yl)-6-((1-isopropylpiperidin-4-yl)oxy)picolinamide]: the IC50 came to 37 nM.
Take `CC(=O)N1CC=C(c2cc(N3CCC[C@@H](NC(=O)c4ccnc(N5CC6(C5)CN(C(C)C)C6)n4)C3)c3c(N)ncnn23)C1` [Example 752, (R)-N-(1-(7-(1-acetyl-2,5-dihydro-1H-pyrrol-3-yl)-4-aminopyrrolo[2,1-f][1,2,4]triazin-5-yl)piperidin-3-yl)-2-(6-isopropyl-2,6-diazaspiro[3.3]heptan-2-yl)pyrimidine-4-carboxamide]: the IC50 is 79 nM.
